Results on 17 molecules are retold here after ChEMBL document CHEMBL4616586, “Design, synthesis and biological evaluation of substituted flavones and aurones as potential anti-influenza agents” (Bioorg Med Chem, 2020).

Molecules are shown by their SMILES. The source made the active and inactive calls. No cut-off for these calls is given here.

A short description of series [1]: Cytotoxicity against dog MDCK cells assessed as reduction in cell viability by MTT assay. The format is cell-based, Canis lupus familiaris. (In general: Tetrazolium assays rely on reduction of a dye to a coloured formazan, in cell work by metabolically active cells.)
The next series deals with Influenza A virus. As to the kind of experiment: Antiviral activity against Influenza A virus (H1N1) infected in dog MDCK cells assessed as reduction in log2HA titer incubated for 3 to 4 days by CPE assay. The format is functional, organism-based.
Series [2] can be described thus: Selectivity index, ratio of CC50 for dog MDCK cells to EC50 for Influenza A virus (H1N1) infected in dog MDCK cells. The series is classed as toxicity, cell-based. The settings on record: read-out: Ratio CC50/EC50.
Series [3] concerns the target Neuraminidase (Influenza A virus (A/Puerto Rico/8/1934(H1N1)), UniProt P03468). In words: Inhibition of Influenza A virus (H1N1) neuraminidase.
For series [4], the target named is Neuraminidase (Influenza A virus (A/Puerto Rico/8/1934(H1N1))) (UniProt P03468). In words: Non-competitive inhibition of Influenza A virus (H1N1) neuraminidase by Lineweaver-Burk plot analysis.
Neuraminidase (Influenza A virus (A/Puerto Rico/8/1934(H1N1))), sequence (P03468 whole entry): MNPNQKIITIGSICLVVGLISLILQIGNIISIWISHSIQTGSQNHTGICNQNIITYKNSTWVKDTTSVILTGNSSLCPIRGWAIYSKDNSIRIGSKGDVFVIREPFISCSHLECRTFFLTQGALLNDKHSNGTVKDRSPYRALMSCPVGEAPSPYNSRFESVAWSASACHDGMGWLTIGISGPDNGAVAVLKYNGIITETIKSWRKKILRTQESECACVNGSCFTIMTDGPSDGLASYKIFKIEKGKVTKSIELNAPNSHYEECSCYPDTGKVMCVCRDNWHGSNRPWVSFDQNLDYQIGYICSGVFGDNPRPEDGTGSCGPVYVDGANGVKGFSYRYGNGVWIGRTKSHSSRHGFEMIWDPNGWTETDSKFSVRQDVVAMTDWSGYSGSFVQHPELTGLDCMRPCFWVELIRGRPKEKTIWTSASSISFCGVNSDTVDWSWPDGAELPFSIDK

Neuraminidase (Influenza A virus (A/Puerto Rico/8/1934(H1N1)), UniProt P03468), sequence (P03468 whole entry): as above

In general, CC50 refers to the concentration at which the toxic effect on the cells reaches its halfway point. Consider `COc1cccc(/C=C2\Oc3ccccc3C2=O)c1` [3'-METHOXY-AURONE], for which the CC50 in series [1] is 7.81 µM.
The same measure, in the same setting: for `O=C1/C(=C/c2cccc(Cl)c2)Oc2ccccc21` the value was 26.9 µM.
As usually defined, the EC50 is the midpoint of the concentration-response curve. A word on the IC50: it is the concentration that gives 50% inhibition. Consider `O=c1c(O)c(-c2ccc(O)c(O)c2)oc2cc(O)cc(O)c12` [QUERCETIN], for which the 50% effective concentration (EC50) in the series with Influenza A virus was found to be 0.0845 µM. In series [2], the selectivity ratio came to 3010. Besides, the IC50 in series [3] was 7.75 µM. Also, the inhibition entry in series [4] is “Active”.
On to `CCC(CC)O[C@@H]1C=C(C(=O)O)C[C@H](N)[C@H]1NC(C)=O` [OSELTAMIVIR CARBOXYLATE], for which the half-maximal effective concentration (EC50) with Influenza A virus came to 0.0071 µM. In series [1], the half-maximal cytotoxic concentration (CC50) was found to be 713 µM.
As for `O=C1/C(=C/c2cccc([N+](=O)[O-])c2)Oc2ccccc21`, in series [1], the 50% cytotoxic concentration (CC50) turned out to be 396 µM.
Consider `O=C1/C(=C/c2ccccc2Cl)Oc2ccccc21`, for which the cytotoxic concentration (CC50) in series [1] was 339 µM.
For the molecule `COc1ccc(/C=C2\Oc3ccccc3C2=O)cc1` [4'-METHOXY-AURONE], the 50% effective concentration (EC50) with Influenza A virus worked out at 0.0353 µM. Moreover, the selectivity ratio in series [2] is 4800. In addition, the CC50 in series [1] was determined as 169 µM. This molecule gave an IC50 in series [3] of 37.5 µM. For the same molecule, in series [4], the inhibition result is “Active”.
Turning to `O=c1cc(-c2cccc(Cl)c2)oc2ccccc12`, in the series with Influenza A virus, the EC50 turned out to be 0.0477 µM. Moreover, the selectivity ratio in series [2] stood at 3650. Further, the CC50 in series [1] stood at 174 µM. The same molecule yielded an IC50 in series [3] of 32.6 µM.
The like results for `COc1cccc(-c2cc(=O)c3ccccc3o2)c1` were, in that order, 0.0126 µM, 21000, 263 µM and 10.8 µM.
For `O=C1/C(=C/c2ccc([N+](=O)[O-])cc2)Oc2ccccc21`, in that order: 0.0463 µM, 4600, 213 µM and 41 µM.
As for `COc1ccccc1/C=C1\Oc2ccccc2C1=O` [(Z)-2'-METHOXYAURONE], the cytotoxic concentration (CC50) in series [1] was 273 µM.
For the molecule `COc1ccccc1-c1cc(=O)c2ccccc2o1`, the CC50 in series [1] came out at 171 µM.
For `O=c1cc(-c2ccc(Cl)cc2)oc2ccccc12`, the EC50 in the series on Influenza A virus was 0.0359 µM. Besides, the selectivity ratio in series [2] stood at 3210. Moreover, the CC50 in series [1] is 115 µM. The molecule also gave an IC50 in series [3] of 27.7 µM.
For `O=c1cc(-c2cccc([N+](=O)[O-])c2)oc2ccccc12`, in that order: 0.0141 µM, 19100, 269 µM and 15.4 µM.
`O=c1cc(-c2ccccc2Cl)oc2ccccc12`: in series [1], the half-maximal cytotoxic concentration (CC50) was found to be 388 µM.
With `O=C1/C(=C/c2ccc(Cl)cc2)Oc2ccccc21`, in the series on Influenza A virus, the half-maximal effective concentration (EC50) stood at 0.0514 µM. Besides, in series [2], the selectivity ratio was found to be 5300. Further, the CC50 in series [1] turned out to be 272 µM. The molecule further registered an IC50 in series [3] of 45.4 µM.
As to `COc1ccc(-c2cc(=O)c3ccccc3o2)cc1` [4'-METHOXYFLAVONE], the half-maximal effective concentration (EC50) with Influenza A virus worked out at 0.00936 µM. In addition, the selectivity ratio in series [2] was 20500. The CC50 in series [1] was determined as 192 µM. It took 8.74 µM to reach half-maximal inhibition in series [3] (IC50). The inhibition entry in series [4] was “Active”.
